Experimental findings from ChEMBL document CHEMBL1909046, “DrugMatrix in vitro pharmacology data” are described below.

For one data set, the target named is Vasopressin V1a receptor (Homo sapiens, UniProt P37288). Type of data set: cell membranes, Membrane. The settings on record: hek293. Further: in other assays of this panel Not Active means under 50% inhibition at 10 µM.
In data set [1] the target is T1, 5-hydroxytryptamine receptor 1A (Rattus norvegicus, UniProt P19327). Further: in other assays of this panel Not Active means under 50% inhibition at 10 µM.
T1 sequence (P19327 whole entry): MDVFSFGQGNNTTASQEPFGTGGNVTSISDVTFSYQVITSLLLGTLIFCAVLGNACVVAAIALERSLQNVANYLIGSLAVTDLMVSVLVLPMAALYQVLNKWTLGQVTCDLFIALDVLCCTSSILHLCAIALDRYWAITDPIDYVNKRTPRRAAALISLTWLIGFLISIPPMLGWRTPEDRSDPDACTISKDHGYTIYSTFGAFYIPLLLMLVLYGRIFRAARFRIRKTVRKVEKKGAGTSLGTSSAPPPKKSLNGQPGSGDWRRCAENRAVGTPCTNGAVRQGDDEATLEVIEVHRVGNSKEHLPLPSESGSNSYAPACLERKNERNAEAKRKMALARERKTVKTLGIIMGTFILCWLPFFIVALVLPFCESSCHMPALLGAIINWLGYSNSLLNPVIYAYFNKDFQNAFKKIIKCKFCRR
The format is cell membranes, CHO-K1, Membrane.

The next data set addresses Cytochrome P450 2C9 (Homo sapiens, UniProt P11712). To be noted: bti-tn-5b1-4.
Data set [2] concerns the target T2, Alpha-1B adrenergic receptor (Rattus norvegicus, UniProt P15823).
T2 sequence (P15823 whole entry): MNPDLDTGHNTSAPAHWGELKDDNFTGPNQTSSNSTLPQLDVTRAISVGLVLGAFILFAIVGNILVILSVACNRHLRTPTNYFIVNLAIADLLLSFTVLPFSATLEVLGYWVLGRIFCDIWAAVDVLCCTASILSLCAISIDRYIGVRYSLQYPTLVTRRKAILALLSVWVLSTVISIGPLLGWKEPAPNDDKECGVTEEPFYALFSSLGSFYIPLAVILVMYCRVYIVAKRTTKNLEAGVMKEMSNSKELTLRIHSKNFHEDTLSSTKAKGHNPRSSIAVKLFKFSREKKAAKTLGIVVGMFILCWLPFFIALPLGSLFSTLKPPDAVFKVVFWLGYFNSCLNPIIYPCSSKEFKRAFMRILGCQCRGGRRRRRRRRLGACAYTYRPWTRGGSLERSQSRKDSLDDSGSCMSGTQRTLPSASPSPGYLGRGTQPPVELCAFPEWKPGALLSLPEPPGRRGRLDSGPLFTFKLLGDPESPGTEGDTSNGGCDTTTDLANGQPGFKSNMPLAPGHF
The data set is described as follows: DRUGMATRIX: Alpha-1B adrenergic receptor radioligand binding (ligand: prazosin). Type of data set: cell membranes, Wistar, Liver, Membrane. To be noted: Not Active = under 50% inhibition at 10 µM; for Ki: read-out: Ki.

Another data set addresses T3, Glucocorticoid receptor (Homo sapiens, UniProt P04150).
T3 sequence (P04150 whole entry): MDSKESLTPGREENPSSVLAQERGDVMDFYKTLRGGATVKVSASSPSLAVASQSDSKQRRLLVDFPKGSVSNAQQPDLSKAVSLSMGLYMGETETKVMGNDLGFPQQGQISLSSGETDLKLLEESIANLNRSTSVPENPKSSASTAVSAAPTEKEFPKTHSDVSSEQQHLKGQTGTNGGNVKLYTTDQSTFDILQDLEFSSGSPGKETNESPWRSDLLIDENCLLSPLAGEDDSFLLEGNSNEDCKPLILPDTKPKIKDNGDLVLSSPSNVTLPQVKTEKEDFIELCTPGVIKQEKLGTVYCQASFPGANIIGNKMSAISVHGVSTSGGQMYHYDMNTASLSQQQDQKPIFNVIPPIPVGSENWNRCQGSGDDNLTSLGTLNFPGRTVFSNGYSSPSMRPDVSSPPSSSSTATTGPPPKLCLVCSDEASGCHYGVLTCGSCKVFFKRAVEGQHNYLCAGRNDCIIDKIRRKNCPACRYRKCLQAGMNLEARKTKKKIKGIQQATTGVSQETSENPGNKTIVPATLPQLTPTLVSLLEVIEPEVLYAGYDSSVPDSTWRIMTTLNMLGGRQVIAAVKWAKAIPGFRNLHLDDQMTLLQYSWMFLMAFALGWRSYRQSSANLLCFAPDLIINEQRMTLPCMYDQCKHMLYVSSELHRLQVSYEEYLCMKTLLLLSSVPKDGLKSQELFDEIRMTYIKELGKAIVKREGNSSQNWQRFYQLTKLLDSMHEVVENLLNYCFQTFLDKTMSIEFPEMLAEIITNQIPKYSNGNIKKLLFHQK
To be noted: hela s3.

The target in the next data set is T4, Substance-K receptor (Homo sapiens, UniProt P21452). Further: in other assays of this panel Not Active means under 50% inhibition at 10 µM.
T4 sequence (P21452 whole entry): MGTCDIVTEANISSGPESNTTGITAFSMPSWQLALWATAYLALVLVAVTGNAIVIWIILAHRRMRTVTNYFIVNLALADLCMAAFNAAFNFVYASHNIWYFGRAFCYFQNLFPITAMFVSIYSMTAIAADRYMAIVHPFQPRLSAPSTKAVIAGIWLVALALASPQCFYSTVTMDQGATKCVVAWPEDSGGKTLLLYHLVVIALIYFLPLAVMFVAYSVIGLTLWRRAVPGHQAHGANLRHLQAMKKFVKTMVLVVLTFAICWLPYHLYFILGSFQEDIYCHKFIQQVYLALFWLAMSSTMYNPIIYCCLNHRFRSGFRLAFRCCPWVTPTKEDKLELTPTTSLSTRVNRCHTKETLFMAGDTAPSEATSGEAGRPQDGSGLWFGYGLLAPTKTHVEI
The format is cell membranes, CHO, Membrane. To be noted: cho.

A short description of data set [3]: DRUGMATRIX: Atrial Natriuretic Factor (ANF) radioligand binding (ligand: [125I] ANF (rat)). The format is cell membranes, Cavia porcellus, Dunkin-Hartley, Adrenal gland, Membrane. The settings on record: Not Active = under 50% inhibition at 10 µM.

As usually defined, the IC50 is the concentration that inhibits the measured activity by half. A word on the Ki: it is a measure of affinity in units of concentration, obtained from inhibition or displacement.

Cytochrome P450 2C9, sequence (P11712 whole entry): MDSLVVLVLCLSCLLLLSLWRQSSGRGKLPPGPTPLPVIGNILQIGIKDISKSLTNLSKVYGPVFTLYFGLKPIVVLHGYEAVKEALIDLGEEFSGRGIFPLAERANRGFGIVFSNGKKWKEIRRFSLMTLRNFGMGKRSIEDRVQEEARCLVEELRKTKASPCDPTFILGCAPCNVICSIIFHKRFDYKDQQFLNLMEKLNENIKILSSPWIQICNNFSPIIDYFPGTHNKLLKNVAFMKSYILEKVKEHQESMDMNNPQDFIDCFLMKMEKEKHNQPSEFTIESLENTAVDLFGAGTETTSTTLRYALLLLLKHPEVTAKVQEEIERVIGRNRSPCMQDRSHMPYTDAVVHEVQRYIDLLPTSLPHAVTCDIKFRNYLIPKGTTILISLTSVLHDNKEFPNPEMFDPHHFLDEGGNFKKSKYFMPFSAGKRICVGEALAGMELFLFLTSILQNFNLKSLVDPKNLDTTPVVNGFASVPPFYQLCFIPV
Vasopressin V1a receptor, sequence (P37288 whole entry): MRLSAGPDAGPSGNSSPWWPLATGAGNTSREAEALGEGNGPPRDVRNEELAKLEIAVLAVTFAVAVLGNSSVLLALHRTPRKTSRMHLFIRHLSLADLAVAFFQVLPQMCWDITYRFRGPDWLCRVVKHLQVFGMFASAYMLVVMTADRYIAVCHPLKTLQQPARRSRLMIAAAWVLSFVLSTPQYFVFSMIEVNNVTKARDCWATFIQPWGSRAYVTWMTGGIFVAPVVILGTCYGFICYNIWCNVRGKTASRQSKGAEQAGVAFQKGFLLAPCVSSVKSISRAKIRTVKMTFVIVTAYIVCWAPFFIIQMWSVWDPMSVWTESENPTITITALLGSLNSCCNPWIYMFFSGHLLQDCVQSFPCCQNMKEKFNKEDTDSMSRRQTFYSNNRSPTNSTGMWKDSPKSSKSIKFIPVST

With `CN1C[C@H](C(=O)N[C@]2(C)O[C@@]3(O)[C@@H]4CCCN4C(=O)[C@H](Cc4ccccc4)N3C2=O)C[C@@H]2c3cccc4[nH]cc(c34)C[C@H]21` [DIHYDROERGOTAMINE], the IC50 result against Vasopressin V1a receptor is “Not Active”; in data set [1] (read-out: IC50), 0.659 nM; against Cytochrome P450 2C9, “Not Active”; in data set [2] (read-out: IC50), 8.09 nM; on Glucocorticoid receptor, “Not Active”; at Substance-K receptor, “Not Active”. In addition, in data set [3], the IC50 result was “Not Active”. The Ki in data set [1] (read-out: Ki) was 0.377 nM; at Cytochrome P450 2C9, “Not Active”; in data set [2], 4.48 nM; in data set [3] it was “Not Active”.
As for `Cc1c(N(C)CS(=O)(=O)[O-])c(=O)n(-c2ccccc2)n1C.[Na+]` [DIPYRONE SODIUM], the IC50 result (against Vasopressin V1a receptor; in data set [1] (cho-k1); on Cytochrome P450 2C9; in data set [2]; against Glucocorticoid receptor; against Substance-K receptor) was “Not Active” throughout. In data set [3], the IC50 entry was “Not Active”. Moreover, the Ki entry (on Cytochrome P450 2C9; in data set [3]) was “Not Active” in each case.
For `CC(CCc1ccc(O)cc1)NCCc1ccc(O)c(O)c1` (centres undefined) [DOBUTAMINE], the half-inhibitory concentration (IC50) entry against Vasopressin V1a receptor was “Not Active”; in data set [1] (cho-k1) it was “Not Active”; at Cytochrome P450 2C9 it was “Not Active”; in data set [2] (read-out: IC50), 336 nM; on Glucocorticoid receptor it was “Not Active”; against Substance-K receptor, “Not Active”. The IC50 result in data set [3] is listed as “Not Active”. The inhibitory constant (Ki) result on Cytochrome P450 2C9 was “Not Active”; in data set [2] it was 186 nM; in data set [3] it was “Not Active”.
`CCC(=O)O[C@H]1[C@H](O[C@@H]2[C@@H](C)[C@H](O[C@H]3C[C@@](C)(OC)[C@@H](O)[C@H](C)O3)[C@@H](C)C(=O)O[C@H](CC)[C@@](C)(O)[C@H](O)[C@@H](C)C(=O)[C@H](C)C[C@@]2(C)O)O[C@H](C)C[C@@H]1N(C)C` [ERYTHROMYCIN PROPIONATE]: the IC50 entry (at Vasopressin V1a receptor; in data set [1] (cho-k1); at Cytochrome P450 2C9; in data set [2]; on Glucocorticoid receptor; at Substance-K receptor) was “Not Active” in each case. Also, the IC50 entry in data set [3] is recorded as “Not Active”. Besides, the Ki entry (on Cytochrome P450 2C9; in data set [3]) was “Not Active” each time.
For the compound `C=C(CC)C(=O)c1ccc(OCC(=O)O)c(Cl)c1Cl` [ETHACRYNIC ACID], the IC50 entry (against Vasopressin V1a receptor; in data set [1] (cho-k1); against Cytochrome P450 2C9; in data set [2]; at Glucocorticoid receptor; at Substance-K receptor) was “Not Active” in each case. In addition, the IC50 result in data set [3] is listed as “Not Active”. The Ki result (at Cytochrome P450 2C9; in data set [3]) was “Not Active” each time.
Take `CC(=O)OCC(CCn1cnc2cnc(N)nc21)COC(C)=O` [FAMCICLOVIR]: the IC50 entry (against Vasopressin V1a receptor; in data set [1] (cho-k1); against Cytochrome P450 2C9; in data set [2]; at Glucocorticoid receptor; against Substance-K receptor) was “Not Active” throughout. Also, the IC50 entry in data set [3] is listed as “Not Active”. Moreover, the Ki result (on Cytochrome P450 2C9; in data set [3]) was “Not Active” in each case.
Regarding `O=C(O)Cc1ccc(-c2ccccc2)cc1` [FELBINAC], the IC50 result (at Vasopressin V1a receptor; in data set [1] (cho-k1); against Cytochrome P450 2C9; in data set [2]; at Glucocorticoid receptor; on Substance-K receptor) was “Not Active” in each case. In addition, the IC50 entry in data set [3] is “Not Active”. For the same compound, the Ki entry (on Cytochrome P450 2C9; in data set [3]) was “Not Active” each time.
On to `CC(C(=O)O)c1ccc(-c2ccccc2)c(F)c1` (centres undefined) [FLURBIPROFEN], for which the IC50 entry (on Vasopressin V1a receptor; in data set [1] (cho-k1); against Cytochrome P450 2C9; in data set [2]; on Glucocorticoid receptor; on Substance-K receptor) was “Not Active” in each case. In addition, in data set [3], the IC50 result is given as “Not Active”. Also, the Ki entry (on Cytochrome P450 2C9; in data set [3]) was “Not Active” each time.
Regarding `C[C@H]([C@](O)(Cn1cncn1)c1ccc(F)cc1F)S(C)(=O)=O` [GENACONAZOLE], the IC50 entry (at Vasopressin V1a receptor; in data set [1] (cho-k1); at Cytochrome P450 2C9; in data set [2]; on Glucocorticoid receptor; against Substance-K receptor) was “Not Active” each time. In addition, the IC50 result in data set [3] is listed as “Not Active”. For the same compound, the Ki result (at Cytochrome P450 2C9; in data set [3]) was “Not Active” throughout.
Regarding `Cc1c(F)c(N2CCNC(C)C2)cc2c1c(=O)c(C(=O)O)cn2C1CC1` (centres undefined) [GREPAFLOXACIN], the IC50 result (at Vasopressin V1a receptor; in data set [1] (cho-k1); at Cytochrome P450 2C9; in data set [2]; against Glucocorticoid receptor; on Substance-K receptor) was “Not Active” in each case. Also, the IC50 result in data set [3] was “Not Active”. In addition, the Ki result (on Cytochrome P450 2C9; in data set [3]) was “Not Active” in each case.
As to `NC[C@H]1O[C@H](O[C@H]2[C@H](O)[C@@H](O[C@H]3O[C@H](CO)[C@@H](O)[C@H](N)[C@H]3O)[C@H](N)C[C@@H]2N)[C@H](O)[C@@H](O)[C@@H]1O` [KANAMYCIN], the IC50 result (on Vasopressin V1a receptor; in data set [1] (cho-k1); at Cytochrome P450 2C9; in data set [2]; at Glucocorticoid receptor; against Substance-K receptor) was “Not Active” throughout. Also, the IC50 result in data set [3] is given as “Not Active”. For the same compound, the Ki entry (at Cytochrome P450 2C9; in data set [3]) was “Not Active” throughout.
`Cc1cccc(Nc2ccccc2C(=O)O)c1C` [MEFENAMIC ACID]: the IC50 result (at Vasopressin V1a receptor; in data set [1] (cho-k1); on Cytochrome P450 2C9; in data set [2]; against Glucocorticoid receptor; against Substance-K receptor) was “Not Active” throughout. Besides, the IC50 result in data set [3] was “Not Active”. Further, the Ki entry (at Cytochrome P450 2C9; in data set [3]) was “Not Active” throughout.
Take `COc1ccccc1OCC(O)COC(N)=O` (centres undefined) [METHOCARBAMOL]: the IC50 entry (at Vasopressin V1a receptor; in data set [1] (cho-k1); against Cytochrome P450 2C9; in data set [2]; against Glucocorticoid receptor; on Substance-K receptor) was “Not Active” each time. For the same compound, the IC50 entry in data set [3] is on record as “Not Active”. Besides, the Ki result (on Cytochrome P450 2C9; in data set [3]) was “Not Active” each time.
For `COc1ccc2cc(CCC(C)=O)ccc2c1` [NABUMETONE], the IC50 entry (on Vasopressin V1a receptor; in data set [1] (cho-k1); on Cytochrome P450 2C9; in data set [2]; at Glucocorticoid receptor; at Substance-K receptor) was “Not Active” each time. Besides, the IC50 entry in data set [3] is “Not Active”. The Ki result (on Cytochrome P450 2C9; in data set [3]) was “Not Active” each time.
